Several values for one entry are separate records, joined by “and”; a condition that tells them apart may be missing. Equal values may be shown once. Read-outs that look alike come from different tables or passages of the source.
Assays:
[1] = intravenous infusion, cited from earlier work
[2] = test system: 293 cells; experiment: Expression of PSMA constructs in transfected 293 cells by FACS; format: cell-based; details: 293 cells transfected with PJV7563 vector, stained with mouse anti-PSMA antibody three days later; cell surface expression
Procedure: The expression of the PSMA cytosolic, secreted, and modified antigens was determined by FACS. Mammalian 293 cells were transfected with the PJV7563 PMED vectors encoding the various immunogenic PSMA polypeptides. Three days later, the 293 cells were stained with mouse anti-PSMA antibody, followed with a fluorescent conjugated (FITC) rat anti-mouse secondary antibody.

[3] = test system: human PSMA; experiment: ELISA, serum anti-PSMA antibody titers after PMED DNA vaccination; format: in vivo; details: Example 7, FIG. 28; Pasteur and C57BL/6 mice; day 35; within the same strain
Procedure: Serum was subjected to enzyme-linked immunosorbent assays (ELISA) to determine the anti-PSMA and anti-PSCA antibody titers. In brief, ELISA plates were coated with 1 μg/ml of human PSMA or PSCA and incubated overnight at 4° C. Plates were then blocked and incubated at RT for 1 h with 1% bovine serum albumin (BSA). Each serum sample was serially diluted in duplicate starting at a 1:100 dilution and incubated for 1 h at RT. After washing, a horseradish-peroxidise (HRP)-conjugated goat anti-mouse polyclonal IgG antibody was incubated at RT for 1 h. After washing, the TMB Peroxidase EIA-Substrate was incubated at RT for 30 min. The colorimetric reaction was stopped by addition 1N sulfuric acid and the absorbance then read at 450 nm. Titration curves were plotted for each serum sample (sample dilution versus absorbance). The serum titer (subsequently transformed into reciprocal titer) was then taken as the most dilute serum sample tested with an optical density (OD) value of above the lower limit of detection (LLOD; background plus 3 standard deviations) or the serum dilution calculated to achieve an OD value of 1.0. […]
The anti-PSMA and anti-PSCA antibody titers in the serum was determined using ELISA as described in Example 5. […]
Antibody responses induced by the modified and full-length PSMA vaccines were measured in serum from each animal collected on day 35. […]

[4] = test system: hPSMA full-length protein; experiment: IFN-γ ELISPOT, hPSMA modified versus full-length DNA vaccine in C57BL/6 mice; format: in vivo, human; details: Example 7, FIG. 26; C57BL/6, PMED days 0, 14, 28; day 35
From the text: The immune responses induced by DNA vaccination using a construct encoding an immunogenic PSMA polypeptide (the “human PSMA modified antigen” or “hPSMA modified”) consisting 15-750 amino acids (aa) of the native human PSMA protein of SEQ ID NO: 1 were compared with those induced by the native human full-length PSMA protein (hPSMA full length). Groups of female C57BL/6 mice or female Pasteur (HLA-A2/DR1) transgenic mice were primed on day 0 and boosted on days 14, 28 by PMED administration with a 2 μg dose of a DNA vaccine encoding either hPSMA full-length or hPSMA modified protein. Mice were bled and sacrificed on day 35 (7 days after the third vaccination) and T cell immune responses against the hPSMA full-length protein were determined in splenocytes by IFN-γ ELISPOT assay. For C57BL/6 mice, single cell suspensions of 5×10^5 splenocytes from individual animals were plated per well with […] purified hPSMA protein, 5×10^4 TRAMP-C2 cells alone, or TRAMP-C2 cells expressing hPSMA or a PSMA-PSA-PSCA fusion protein. […] Responses in Pasteur mice were also determined using 10 μg/ml purified PSMA protein or 5×10^4 SK-Mel5 cells that had been transduced with Adenoviral vectors expressing a control protein (Ad-eGFP) or the full-length human PSMA protein (Ad-hPSMA). […] The number of IFN-γ SFC was counted by a CTL reader. […]

[5] = test system: subcutaneous TUBO tumors; experiment: Subcutaneous TUBO tumor growth and survival in BALB/neuT mice, sunitinib malate with cancer vaccine; format: in vivo, mouse; details: FIG. 33D; Sutent 20 mg/kg for 34 days combined with cancer vaccine
Procedure: The Anti-tumor efficacy of sunitinib malate in combination with an anti-cancer DNA vaccine was investigated in BALB/neuT transgenic female mice. Heterozygote BALB/neuT transgenic female mice that express rat Her-2 (rHer-2) tumor associate antigen were implanted subcutaneously with 1e6 TUBO cells expressing rHer-2 which are derived from the spontaneous mammary tumors of BALB/neuT mice. After 7 days post tumor cell implantation, the mice were dosed once a day orally with either vehicle or sunitinib malate at doses as indicated in the legends. Three days after the initiation of sunitinib malate therapy, the mice were immunized with regimens comprised of either (a) control vaccine that expresses an antigen that is not expressed in the tumor or the mouse or (b) DNA cancer vaccine construct that expresses a rat Her-2 antigen of SEQ ID NO: 54 (rHER2) which is expressed in the tumor and the mouse. The tumor growth rate was analyzed by measuring the long (a) and short diameter (b) of the subcutaneous TUBO tumors twice a week and calculating the volume as a×b^2×0.5 mm^3. The average and standard error of the mean of the tumor volumes from 10 mice per each treatment group are plotted against the days after tumor implantation. […]

[6] = Kinetics of blood sunitinib by LC/MS/MS in BALB/neuT mice with subcutaneous TUBO tumors; format: in vivo, mouse; details: for concentration at 2 h: peak at 2 hrs
Procedure: The kinetics of blood sunitinib was investigated in BALB/neuT mice with subcutaneous TUBO tumors. Briefly, 20 mice per each treatment group were given Sutent orally, at 20 mg/kg once a day (SID) or at 10 mg/kg twice a day (BID) with 6 hr intervals, 6 days after tumor implantation. Submandibular blood from 2-3 mice was collected into lithium heparin tubes at several time points after Sutent dosing as indicated (0, 2, 4, 6, 8, 10, 12, and 24 hr). The plasma supernatant was recovered from the tubes after centrifugation at ×1000 g for 15 min. and the sunitinib levels from the plasma samples were measured by LC/MS/MS. The mean and standard error of the mean of each group at each time point is plotted.

[7] = test system: Myeloid Derived Suppressor Cells (MDSC); experiment: Adoptively transferred MDSC recovered from spleen of BALB/c mice dosed with sunitinib; format: in vivo, mouse; details: CFSE+, CD3−, GR1+, CD11b+ cells, 2 days post adoptive transfer, vehicle 17470 +/− 2017
Procedure: To generate MDSC enriched splenocytes, TUBO cells (1×10^6) were implanted into the flanks of 5 BALB/neuT mice, and left for approx. 20-30 days until tumor volume reached between 1000-1500 mm^3. Mice were then sacrificed, spleens removed and the MDSC enriched splenocytes recovered. Splenocytes were labeled for 10 minutes with 5 μM CFSE, washed with PBS and counted. Labeled cells were subsequently resuspended at 5×10^7 splenocytes/ml in PBS solution and adoptively transferred via an i.v. tail vein injection into naïve BALB/c recipient mice. Three days prior to adoptive transfer, the recipient mice began bi-daily dosing with vehicle or sunitinib malate (Sutent) at 5 mg/kg, 10 mg/kg and 20 mg/kg. Following adoptive transfer, recipient mice continued to receive bi-daily dosing of Vehicle or sunitinib for two further days, after which point the mice were sacrificed, spleens removed, splenocytes recovered and processed for phenotypic analysis.
Splenocytes were counted and resuspended at 5×10^6 cells/ml in FACS staining buffer (PBS, 0.2% (w/v) bovine serum albumin, and 0.02% (w/v) Sodium Azide). For flow cytometry staining of splenocytes, 2.5×10^6 cells were first incubated with anti-bodies to CD16/CD32, 10 minutes at 4° C., to block Fc receptors and minimize non-specific binding. Splenocytes were then stained for 20 minutes at 4° C. with appropriate fluorophore conjugated antibodies (Biolegend) to murine cell surface markers. For T cells (anti-CD3 (Pacific Blue), clone 17A2) and for MDSC (anti-GR-1 (APC), clone RB6-8C5 and anti-CD11b (PerCp Cy5.5), clone M1/70). A live/dead stain was also included. […] To monitor the effect of Sunitinib or Vehicle on the adoptively transferred MDSC survival, we calculated the percentage of CFSE+,CD3−,GR1+,CD11b+ in the live, singlet gate. We then determined the number of adoptively transferred MDSC per spleen by calculating what actual cell number the percentage represented of total splenocytes count. Data was analyzed by FloJo and Graph pad software.

[8] = test system: phosphorylated STAT3; experiment: Phosphor-STAT3 ELISA of spleen extracts of TUBO tumor bearing BALB/neuT mice after Sutent; format: in vivo, mouse
Procedure: (§1) The acute effect of Sutent on the phosphorylation status of STAT3 in the spleen was investigated in a subcutaneous tumor mouse model to evaluate the direct immunomodulatory effects of the compound. Briefly, 10-12 week old female BALB/neuT mice were implanted with 1e6 TUBO cells subcutaneously in the right flank. After forty one days post tumor implant, Sutent was given by oral gavage at 20 mg/kg. At 0, 1, 3, 7 and 24 hrs post Sutent dosing, three animals per timepoint were sacrificed under IAUCUC guidelines and spleens were immediately snap frozen in liquid nitrogen to preserve the phosphorylation status. Spleens from female BALB/c mice were snap frozen to use as healthy mice controls.
(§2) Snap frozen spleens were homogenized at 100 mg tissue per 500 μL lysis buffer (70 mM NaCl, 50 mM β-glycerol phosphate, 10 mM HEPES, 1% Triton X-100, 100 mM Na3VO4, 100 mM PMSF, 1 mg/mL leupeptin) using a polytron tissue homogenizer. Resulting digests were centrifuged at 10,000 g for 15 minutes. The supernatant was isolated and protein concentrations were determined using BCA protein assay kit (Pierce, Rockford, Ill.). Forty micrograms of protein were added to each well of either a total STAT3 (eBioscience, cat no. 85-86101-11) or phosphor-STAT3 (eBioscience, cat no. 85-86102-11) ELISA Kit. Relative levels of either protein were compared with standards provided in the kit and with standards purchased independently (Signaling Technologies, cat no. 9333-S).

[9] = test system: total STAT3; experiment: Total STAT3 ELISA of spleen extracts of TUBO tumor bearing BALB/neuT mice after Sutent; format: in vivo, mouse
Procedure: as §1, §2

[10] = Mendel et al.; cited from earlier work
[11] = 1 hr after Sutent 20 mg/kg oral gavage
[12] = 3 hrs after Sutent 20 mg/kg oral gavage
[13] = 7 hrs after Sutent 20 mg/kg oral gavage
[14] = 24 hrs after Sutent 20 mg/kg oral gavage

Compound: CP-870893: fully human agonistic CD40 monoclonal antibody, SEQ ID NO: 40 and 41
- maximum tolerated dose (MTD) ([1]; patients with advanced solid tumors): 0.2 mg/kg
- dose-limiting toxicities ([1]; phase I clinical study): grade 3 CRS and grade 3 urticaria

Compound: full length human PSMA (SEQ ID NO: 1): native human full-length PSMA protein (aa 1-750), SEQ ID NO: 1; tested as DNA vaccine
- Average mean fluorescent intensity [2]: 6425
- serum anti-PSMA antibody titers [3]: equivalent anti-PSMA antibody titer
- IFN-γ T cell responses to TRAMP C2-PSMA or purified hPSMA protein [4]: equivalent T cell immune responses

Compound: CCN(CC)CCNC(=O)c1c(C)[nH]c(/C=C2\C(=O)Nc3ccc(F)cc32)c1C [Sunitinib, butanedioic acid, hydroxy-, (2S)-, compound with N-[2-(diethylamino)ethyl]-5-[(Z)-(5-fluoro-1,2-dihydro-2-oxo-3H-indol-3-ylidine)methyl]-2,4-dimethyl-1H-pyrrole-3-carboxamide (1:1)]
- animals with significantly impaired progression of the tumor after discontinuation of Sutent treatment [5]: 60 % of the animals
- time by which sunitinib cleared the blood ([6]; 10 mg/kg BID orally, after the second dose): ≤ 18 h
- time by which sunitinib cleared the blood ([6]; 20 mg/kg SID orally, post Sutent dosing): ≤ 12 h
- concentration at 2 h ([6]; BALB/neuT, mouse, plasma, oral, 10 mg/kg BID (6 hr interval) orally, read-out: blood sunitinib level): > 50 ng/mL
- concentration at 4 h ([6]; BALB/neuT, mouse, plasma, oral, 10 mg/kg BID orally, by 4 hrs, read-out: blood sunitinib level): < 50 ng/mL
- concentration at 6 h ([6]; BALB/neuT, mouse, plasma, oral, 20 mg/kg SID orally, at 6 hrs, read-out: blood sunitinib level): 50 ng/mL
- concentration at 2 h ([6]; BALB/neuT, mouse, plasma, oral, 20 mg/kg SID orally, read-out: blood sunitinib level): > 50 ng/mL
- MDSC #/spleen Mean +/− SEM ([7]; Sunitinib 5 mg/kg bi-daily): 10980 +/− 1082
- MDSC #/spleen Mean +/− SEM ([7]; Sunitinib 10 mg/kg bi-daily): 4207 +/− 338
- MDSC #/spleen Mean +/− SEM ([7]; Sunitinib 20 mg/kg bi-daily): 4440 +/− 440
- Phospho-STAT3 relative level, Mean [8, 11]: 0.23
- Phospho-STAT3 relative level, individual values [8, 11]: 0.26 and 0.25 and 0.19
- Phospho-STAT3 relative level, Mean [8, 12]: 0.19
- Phospho-STAT3 relative level, individual values [8, 12]: 0.19 and 0.15 and 0.22
- Phospho-STAT3 relative level, Mean [8, 13]: 0.27
- Phospho-STAT3 relative level, individual values [8, 13]: 0.19 and 0.31 and 0.29
- Phospho-STAT3 relative level, Mean [8, 14]: 1.44
- Phospho-STAT3 relative level, individual values [8, 14]: 1.54 and 1.30 and 1.47
- Total STAT3 relative level, Mean [9, 11]: 0.09
- Total STAT3 relative level, individual values [9, 11]: 0.12 and 0.08 (2×)
- Total STAT3 relative level, Mean [9, 12]: 0.13
- Total STAT3 relative level, individual values [9, 12]: 0.15 and 0.09 and 0.16
- Total STAT3 relative level, Mean [9, 13]: 0.08
- Total STAT3 relative level, individual values [9, 13]: 0.10 and 0.07 and 0.08
- Total STAT3 relative level, Mean [9, 14]: 0.08
- Total STAT3 relative level, individual values [9, 14]: 0.08
- minimum sunitinib blood level necessary to effectively inhibit tumor growth in monotherapy [10]: 50 ng/mL
